Experimental data taken from EP3936131A1, “COMPOUNDS FOR THE TREATMENT OF ZIKA” (Dompe' Farmaceutici S.P.A., priority 2020, dated 2022).

The compounds below were run on ZIKV (HS-2015-BA-01) (assay: Plaque titration assay of supernatant from ZIKV-infected Vero CCL-81 cells treated with compound). Conditions: 30, 10 and 3 microM (AEE-788 and Olcegepant: 10 and 3 microM); MOI 0.1; two treatments 24 h apart; compared to vehicle control; values only in Figures 1 to 8.
Type: cell-based, Zika Virus
Method: The above compounds selected by the CADD analysis were tested in a ZIKV Vero CCL-81 cells (kidney epithelial cells from African green monkey) assay. This assay is based on viral infection of Vero cells followed by visual monitoring of cytopathic effects of the virus.
In details, the above compounds were diluted to the final concentrations of 30 microM, 10 microM and 3 microM. The final volume required for treatment was 200 microliters per well, in a total of 12 wells.
For infection of the cells, ZIKV (HS-2015-BA-01), isolated from a viremic patient with symptomatic infection in Bahia State, Brazil, in 2015, was used. The complete genome of the virus is under access KX520666 in Genbank. Viral dilutions were prepared in Multiplicity of Infection (MOI) at 0.1 according to a standardized method.
In particular, 37,9 microl of virus (6x10^7 pfu/mL) was used or a total of 25.000 microl (25 ml) RPMI-0% FBS medium
100 microliters of the viral dilution (MOI 0,1) were added to each well and incubated at 5% of CO2 at T= 37°C for 1 hour for adsorption step, swift rocking every 15'.
After discarding the supernatant, 200 microliters of diluted compounds at the different concentrations described above, or vehicle were added for each compound and left in incubation at 5% of CO2 at T= 37°C for 24 hours.
After 24 hours of the first treatment the treatment was repeated a second time, with the same concentration of each compound, and at the same conditions (5% of CO2 at T= 37°C for […]).
After 24 hours, the supernatant was collected and used to perform MTT, LDH plaque titration assays, as described above.
Vero CCL-81 cells (kidney epithelial cells from African green monkey) were seeded in 24-well plates at a density of […].
Cells were maintained in RPMI 1640 medium (Cultilab) supplemented with 10% FBS (Cultilab), 2 mM L-glutamine (Gibco) and 100U/50µg penicillin/streptomycin (Sigma-Aldrich) for 24 h at 37°C in a 5% CO2 incubator.
Serial ten-fold dilutions of viral suspension in sterile dilution tubes were prepared (10-1 up to 10-4). To this aim, tubes were filled with 450 microl of medium 0% SFB and 50 microl of the sample added on the first tube. The same procedure was repeated to obtain serial dilutions by passing 50 microliters to the next dilution and successively for the other dilutions. 300 µl of each serial dilution were added into each of the two wells of 24-well plate, maintaining two wells without infection.
The inoculated plate was incubated at 37°C for 1 hour in a 5% CO2 incubator to allow virus adsorption, swift rocking every 15'. Once discard the cell supernatant from all wells, 1 ml of 1,60% semi-solid carboxymethyl cellulose (CMC) overlay medium with 2% FBS was added to each well to limit the virus dissemination.
The plate was left 4 days at 37°C in a 5% CO2 incubator. Then cell monolayer was incubated with 1 ml of the 10% formol for a minimum 18 hours at room temperature for fixation. Once removed and fixed the overlay medium, the cell monolayer was washed in running water, stained with 1 ml of the 0.04% Violet crystal for 1 hour at room temperature, and the count of viral plaques to calculate plaque-forming unit (PFU) was conducted.
CCOc1nc2cccc(C(=O)OC(C)OC(=O)OC3CCCCC3)c2n1Cc1ccc(-c2ccccc2-c2nnn[nH]2)cc1 (racemic) [Candesartan cilexetil, (±)-2-Ethoxy-1-[2'-(1 H-tetrazol-5-yl)biphenyl-4-ylmethyl]-1 H-benzimidazole-7-carboxylic acid 1-(cyclohexyloxycarbonyloxy) ethyl ester] was tested, and the “virus replication (viral load expressed as log10 plaque forming equivalents)” value was “inhibition of virus replication”.
CCN1CCN(Cc2ccc(-c3cc4c(N[C@H](C)c5ccccc5)ncnc4[nH]3)cc2)CC1 [AEE-788, 6-[4-(4-Ethylpiperazin-1-ylmethyl)phenyl]-N-[1(R)-phenylethyl]-7H-pyrrolo[2,3-d]pyrimidin-4-amine] was tested, and the “virus replication (viral load expressed as log10 plaque forming equivalents)” value was “inhibition of virus replication”.
With Cn1c(=O)n(-c2ccc(C(C)(C)C#N)cc2)c2c3cc(-c4cnc5ccccc5c4)ccc3ncc21 [Dactolisib, 2-Methyl-2-[4-[3-methyl-2-oxo-8-(3-quinolinyl)-2,3-dihydro-1 H-imidazo[4,5-c]quinolin-1-yl]phenyl]propanenitrile] the “virus replication (viral load expressed as log10 plaque forming equivalents)” value was “inhibition of virus replication”.
In the case of NCCCC[C@H](NC(=O)[C@@H](Cc1cc(Br)c(O)c(Br)c1)NC(=O)N1CCC(N2Cc3ccccc3NC2=O)CC1)C(=O)N1CCN(c2ccncc2)CC1 [Olcegepant, N-[2-[5-Amino-1 (S)-[4-(4-pyridyl)piperazin-1-ylcarbonyl]pentylamino]-1(R)-(3,5-dibromo-4-hydroxybenzyl)-2-oxoethyl]-4-(2-oxo-1,2,3,4-tetrahydroquinazolin-3-yl)piperidine-1-carboxamide], the “virus replication (viral load expressed as log10 plaque forming equivalents)” value was “inhibition of virus replication”.
In the case of CC[C@@H]([C@H](C)O)n1ncn(-c2ccc(N3CCN(c4ccc(OC[C@@H]5CO[C@@](Cn6cncn6)(c6ccc(F)cc6F)C5)cc4)CC3)cc2)c1=O [Posaconazole, 4-[4-[4-[4-[5(R)-(2,4-Difluorophenyl)-5-(1,2,4-triazol-1-ylmethyl)tetrahydrofuran-3(R)-ylmethoxy]phenyl]piperazin-1-yl]phenyl]-2-[1(S)-ethyl-2(S)-hydroxypropyl]-3,4-dihydro-2H-1,2,4-triazol-3-one], the “virus replication (viral load expressed as log10 plaque forming equivalents)” value was “inhibition of virus replication”.
Cc1cc(/C=C/C#N)cc(C)c1Nc1ccnc(Nc2ccc(C#N)cc2)n1.Cl [Rilpivirine hydrochloride, 4-[4-[4-[(E)-2-Cyanovinyl]-2,6-dimethylphenylamino]pyrimidin-2-ylamino]benzonitrile hydrochloride] was tested, and the “virus replication (viral load expressed as log10 plaque forming equivalents)” value was “inhibition of virus replication”.
